Data from patent publication US11046699B2, “Pyrazolo-pyrimidin-amino-cycloalkyl compounds and their therapeutic uses” (RAPT THERAPEUTICS, INC., priority 2018, dated 2021).

target: GCN2 (Homo sapiens, UniProt Q9P2K8); experiment: GCN2 enzymatic endpoint assay: phosphorylation of GFP-eIF2α measured by TR-FRET (Lanthascreen); assay type: biochemical; settings: tested as described in Example 77; compound and/or hydrochloride, dihydrochloride or trifluoroacetic acid salt; read-out: IC 50 Activity
How it was run: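 Phosphorylated eIF2α read by Lanthascreen TR-FRET (acceptor 520 nm over donor 495 nm) after EDTA stop. The reaction ran 90 min at room temperature on 80 nM GFP-eIF2α with 2 μM ATP.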

GCN2, sequence (Q9P2K8 whole entry): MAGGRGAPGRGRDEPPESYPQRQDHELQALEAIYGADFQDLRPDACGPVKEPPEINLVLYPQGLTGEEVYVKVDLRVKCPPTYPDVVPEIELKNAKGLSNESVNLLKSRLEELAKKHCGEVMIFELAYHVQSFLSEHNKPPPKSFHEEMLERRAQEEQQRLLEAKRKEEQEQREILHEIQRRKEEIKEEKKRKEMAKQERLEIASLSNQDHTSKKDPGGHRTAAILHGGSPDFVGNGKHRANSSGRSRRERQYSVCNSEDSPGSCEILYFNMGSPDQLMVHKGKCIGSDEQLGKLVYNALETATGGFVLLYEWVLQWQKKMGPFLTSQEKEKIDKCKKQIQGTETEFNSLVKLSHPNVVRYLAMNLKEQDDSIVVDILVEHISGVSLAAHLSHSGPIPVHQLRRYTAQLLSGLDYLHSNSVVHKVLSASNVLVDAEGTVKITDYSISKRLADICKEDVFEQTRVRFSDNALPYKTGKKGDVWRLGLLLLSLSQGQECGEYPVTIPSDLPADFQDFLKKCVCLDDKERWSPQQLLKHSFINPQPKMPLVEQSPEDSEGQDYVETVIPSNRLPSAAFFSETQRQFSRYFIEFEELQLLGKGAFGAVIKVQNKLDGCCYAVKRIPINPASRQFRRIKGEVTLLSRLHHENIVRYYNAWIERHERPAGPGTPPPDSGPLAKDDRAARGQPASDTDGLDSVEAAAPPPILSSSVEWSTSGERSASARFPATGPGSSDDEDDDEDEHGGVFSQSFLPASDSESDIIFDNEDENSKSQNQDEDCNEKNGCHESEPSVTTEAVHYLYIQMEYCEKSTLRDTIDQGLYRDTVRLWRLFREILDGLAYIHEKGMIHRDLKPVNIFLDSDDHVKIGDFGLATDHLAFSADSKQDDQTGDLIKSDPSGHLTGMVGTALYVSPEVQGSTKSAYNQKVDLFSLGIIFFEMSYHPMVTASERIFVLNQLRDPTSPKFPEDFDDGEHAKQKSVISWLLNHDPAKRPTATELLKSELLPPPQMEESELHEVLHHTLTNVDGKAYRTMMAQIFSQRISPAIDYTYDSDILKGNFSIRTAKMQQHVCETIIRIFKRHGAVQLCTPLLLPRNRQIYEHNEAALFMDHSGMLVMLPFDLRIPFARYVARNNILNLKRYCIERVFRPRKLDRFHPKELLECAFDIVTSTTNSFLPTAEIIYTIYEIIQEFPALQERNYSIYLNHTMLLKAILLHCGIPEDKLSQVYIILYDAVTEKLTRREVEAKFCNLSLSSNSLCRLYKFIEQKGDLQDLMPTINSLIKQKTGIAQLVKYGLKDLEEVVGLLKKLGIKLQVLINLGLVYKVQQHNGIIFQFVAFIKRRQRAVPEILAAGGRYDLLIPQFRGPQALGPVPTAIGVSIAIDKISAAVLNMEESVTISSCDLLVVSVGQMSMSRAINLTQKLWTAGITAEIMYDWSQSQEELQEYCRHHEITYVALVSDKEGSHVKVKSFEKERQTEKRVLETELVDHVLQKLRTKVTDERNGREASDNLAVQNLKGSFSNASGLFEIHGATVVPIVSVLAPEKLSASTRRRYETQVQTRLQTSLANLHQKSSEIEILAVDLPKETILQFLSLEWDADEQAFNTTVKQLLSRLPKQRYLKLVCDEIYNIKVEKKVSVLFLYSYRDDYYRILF

Compound | IC50 [nM]
CNC(=O)[C@]1(C)CC[C@@H](Nc2ncc3c(Br)nn(-c4cc(CNS(C)(=O)=O)c5nccnc5c4)c3n2)C1 [(1R,3R)-3-[[3-bromo-1-[8-(methane-sulfonamidomethyl)quinoxalin-6-yl]pyrazolo[3,4-d]pyrimidin-6-yl]amino]-N,1-dimethyl-cyclopentanecarboxamide] | 25 to 200
CNC(=O)[C@]1(C)CC[C@@H](Nc2ncc3c(Br)nn(-c4cc(COC)c5ncccc5c4)c3n2)C1 [(1R,3R)-3-[[3-bromo-1-[8-(methoxymethyl)-6-quinolyl]pyrazolo[3,4-d]pyrimidin-6-yl]amino]-N,1-dimethyl-cyclopentane-carboxamide] | 25 to 200
CNC(=O)[C@]1(C)CC[C@@H](Nc2ncc3c(Br)nn(-c4cc(CS(C)(=O)=O)c5nccnc5c4)c3n2)C1 [(1R,3R)-3-[[3-bromo-1-[8-(methyl-sulfonylmethyl)quinoxalin-6-yl]pyrazolo [3,4-d]pyrimidin-6-yl]amino]-N,1-dimethyl-cyclopentanecarboxamide] | 25 to 200
CNC(=O)[C@]1(C)CC[C@@H](Nc2ncc3c(Br)nn(-c4cc(CS(C)(=O)=O)c5ncccc5c4)c3n2)C1 [(1R,3R)-3-[[3-bromo-1-[8-(methylsulfonyl-methyl)-6-quinolyl]pyrazolo[3,4-d]pyrimidin-6-yl]amino]-N,1-dimethyl-cyclopentanecarboxamide] | 25 to 200
CNC(=O)[C@]1(C)CC[C@@H](Nc2ncc3c(Br)nn(-c4cc(CCNC(=O)C(C)C)c5ncccc5c4)c3n2)C1 [(1R,3R)-3-[[3-bromo-1-[8-[2-(2-methyl-propanoylamino)ethyl]-6-quinolyl]pyrazolo [3,4-d]pyrimidin-6-yl]amino]-N,1-dimethyl-cyclopentanecarboxamide] | 25 to 200
CC#CC(=O)NCCc1cc(-n2nc(Br)c3cnc(N[C@@H]4CC[C@@](C)(C(=O)NC)C4)nc32)cc2cccnc12 [(1R,3R)-3-[[3-bromo-1-[8-[2-(but-2-ynoylamino)ethyl]-6-quinolyl]pyrazolo [3,4-d]pyrimidin-6-yl]amino]-N,1-dimethyl-cyclopentanecarboxamide] | 25 to 200
CNC(=O)[C@]1(C)CC[C@@H](Nc2ncc3c(Br)nn(-c4cc(CCNS(C)(=O)=O)c5ncccc5c4)c3n2)C1 [(1R,3R)-3-[[3-bromo-1-[8-[2-(methane-sulfonamido)ethyl]-6-quinolyl]pyrazolo [3,4-d]pyrimidin-6-yl]amino]-N,1-dimethyl-cyclopentanecarboxamide] | 25 to 200
C=CC(=O)NCCc1cc(-n2nc(Br)c3cnc(N[C@@H]4CC[C@@](C)(C(=O)NC)C4)nc32)cc2cccnc12 [(1R,3R)-3-[[3-bromo-1-[8-[2-(prop-2-enoylamino)ethyl]-6-quinolyl]pyrazolo [3,4-d]pyrimidin-6-yl]amino]-N,1-dimethyl-cyclopentanecarboxamide] | 25 to 200
CNC(=O)[C@]1(C)CC[C@@H](Nc2ncc3c(Br)nn(-c4cc(CCNC(=O)/C=C/CN(C)C)c5ncccc5c4)c3n2)C1 [(1R,3R)-3-[[3-bromo-1-[8-[2-[[(E)-4-(dimethylamino)but-2-enoyl]amino]ethyl]-6-quinolyl]pyrazolo[3,4-d]pyrimidin-6-yl]amino]-N,1-dimethyl-cyclopentane-carboxamide] | 25 to 200
CNC(=O)[C@]1(C)CC[C@@H](Nc2ncc3c(Br)nn(-c4cc(CN5CCCS5(=O)=O)c5ncccc5c4)c3n2)C1 [(1R,3R)-3-[[3-bromo-1-[8-[(1,1-dioxo-1,2-thiazolidin-2-yl)methyl]-6-quinolyl]pyrazolo[3,4-d]pyrimidin-6-yl]amino]-N,1-dimethyl-cyclopentanecarboxamide] | 25 to 200
CNC(=O)[C@]1(C)CC[C@@H](Nc2ncc3c(Br)nn(-c4cc([C@@H](C)CO)c5ncccc5c4)c3n2)C1 [(1R,3R)-3-[[3-bromo-1-[8-[(1R)-2-hydroxy-1-methyl-ethyl]-6-quinolyl]pyrazolo[3,4-d]pyrimidin-6-yl]amino]-N,1-dimethyl-cyclo-pentanecarboxamide] | < 25
CNC(=O)[C@]1(C)CC[C@@H](Nc2ncc3c(Br)nn(-c4cc([C@H](C)CO)c5ncccc5c4)c3n2)C1 [(1R,3R)-3-[[3-bromo-1-[8-[(1S)-2-hydroxy-1-methyl-ethyl]-6-quinolyl]pyrazolo[3,4-d]pyrimidin-6-yl]amino]-N,1-dimethyl-cyclopentanecarboxamide] | < 25
CNC(=O)[C@]1(C)CC[C@@H](Nc2ncc3c(Br)nn(-c4cc(CNCC(F)F)c5ncccc5c4)c3n2)C1 [(1R,3R)-3-[[3-bromo-1-[8-[(2,2-difluoroethylamino)methyl]-6-quinolyl]pyrazolo[3,4-d]pyrimidin-6-yl]amino]-N,1-dimethyl-cyclopentanecarboxamide] | 25 to 200

Next, values leading:

IC50 [nM] | Compound
25 to 200 | CNC(=O)[C@]1(C)CC[C@@H](Nc2ncc3c(Br)nn(-c4cc(CN5C(=O)CNC5=O)c5ncccc5c4)c3n2)C1 [(1R,3R)-3-[[3-bromo-1-[8-[(2,5-dioxo-imidazolidin-1-yl)methyl]-6-quinolyl]pyrazolo[3,4-d]pyrimidin-6-yl]amino]-N,1-dimethyl-cyclopentanecarboxamide]
25 to 200 | CNC(=O)[C@]1(C)CC[C@@H](Nc2ncc3c(Br)nn(-c4cc(CN5C(=O)CCC5=O)c5ncccc5c4)c3n2)C1 [(1R,3R)-3-[[3-bromo-1-[8-[(2,5-dioxo-pyrrolidin-1-yl)methyl]-6-quinolyl]pyrazolo[3,4-d]pyrimidin-6-yl]amino]-N,1-dimethyl-cyclopentanecarboxamide]
25 to 200 | CNC(=O)[C@]1(C)CC[C@@H](Nc2ncc3c(Br)nn(-c4cc(CN5C(=O)CNCC5=O)c5ncccc5c4)c3n2)C1 [(1R,3R)-3-[[3-bromo-1-[8-[(2,6-dioxo-piperazin-1-yl)methyl]-6-quinolyl]pyrazolo [3,4-d]pyrimidin-6-yl]amino]-N,1-dimethyl-cyclopentanecarboxamide]
25 to 200 | CNC(=O)[C@]1(C)CC[C@@H](Nc2ncc3c(Br)nn(-c4cc(CNCCC#N)c5ncccc5c4)c3n2)C1 [(1R,3R)-3-[[3-bromo-1-[8-[(2-cyanoethyl-amino)methyl]-6-quinolyl]pyrazolo[3,4-d]pyrimidin-6-yl]amino]-N,1-dimethyl-cyclopentanecarboxamide]
25 to 200 | CNC(=O)[C@]1(C)CC[C@@H](Nc2ncc3c(Br)nn(-c4cc(CNCCOC)c5ncccc5c4)c3n2)C1 [(1R,3R)-3-[[3-bromo-1-[8-[(2-methoxy-ethylamino)methyl]-6-quinolyl]pyrazolo [3,4-d]pyrimidin-6-yl]amino]-N,1-dimethyl-cyclopentanecarboxamide]
25 to 200 | CNC(=O)[C@]1(C)CC[C@@H](Nc2ncc3c(Br)nn(-c4cc(CN5CCNCC5=O)c5ncccc5c4)c3n2)C1 [(1R,3R)-3-[[3-bromo-1-[8-[(2-oxopiperazin-1-yl)methyl]-6-quinolyl]pyrazolo[3,4-d]pyrimidin-6-yl]amino]-N,1-dimethyl-cyclopentanecarboxamide]
25 to 200 | CNC(=O)[C@]1(C)CC[C@@H](Nc2ncc3c(Br)nn(-c4cc(CN5CCNCCC5=O)c5ncccc5c4)c3n2)C1 [(1R,3R)-3-[[3-bromo-1-[8-[(7-oxo-1,4-diazepan-1-yl)methyl]-6-quinolyl]pyrazolo[3,4-d]pyrimidin-6-yl]amino]-N,1-dimethyl-cyclopentanecarboxamide]
25 to 200 | CNC(=O)[C@]1(C)CC[C@@H](Nc2ncc3c(Br)nn(-c4cc(/C=C/P(C)(C)=O)c5ncccc5c4)c3n2)C1 [(1R,3R)-3-[[3-bromo-1-[8-[(E)-2-dimethylphosphorylvinyl]-6-quinolyl]pyrazolo[3,4-d]pyrimidin-6-yl]amino]-N,1-dimethyl-cyclopentanecarboxamide]
< 25 | CNC(=O)[C@]1(C)CC[C@@H](Nc2ncc3c(Br)nn(-c4cc(/C=C/S(C)(=O)=O)c5ncccc5c4)c3n2)C1 [(1R,3R)-3-[[3-bromo-1-[8-[(E)-2-methyl-sulfonylvinyl]-6-quinolyl]pyrazolo[3,4-d]pyrimidin-6-yl]amino]-N,1-dimethyl-cyclopentanecarboxamide]
25 to 200 | CNC(=O)[C@]1(C)CC[C@@H](Nc2ncc3c(Br)nn(-c4cc(CNS(=O)(=O)C5COC5)c5nccnc5c4)c3n2)C1 [(1R,3R)-3-[[3-bromo-1-[8-[(oxetan-3-ylsulfonylamino)methyl]quinoxalin-6-yl]pyrazolo[3,4-d]pyrimidin-6-yl]amino]-N,1-dimethyl-cyclopentane-carboxamide]
25 to 200 | CNC(=O)[C@]1(C)CC[C@@H](Nc2ncc3c(Br)nn(-c4ccc5c(c4)[C@H](NS(C)(=O)=O)CC5)c3n2)C1 [(1R,3R)-3-[[3-bromo-1-[(3R)-3-(methanesulfonamido)indan-5-yl]pyrazolo [3,4-d]pyrimidin-6-yl]amino]-N,1-dimethyl-cyclopentanecarboxamide]
< 25 | CNC(=O)[C@]1(C)CC[C@@H](Nc2ncc3c(I)nn(-c4ccc(-c5nnc(C)o5)cc4)c3n2)C1 [(1R,3R)-3-[[3-iodo-1-[4-(5-methyl-1,3,4-oxadiazol-2-yl)phenyl]pyrazolo[3,4-d]pyrimidin-6-yl]amino]-N,1-dimethyl-cyclopentanecarboxamide]
25 to 200 | CNC(=O)[C@@H]1CC[C@@H](Nc2ncc3c(I)nn(-c4ccc(-c5nnc(C)o5)cc4)c3n2)C1 [(1R,3R)-3-[[3-iodo-1-[4-(5-methyl-1,3,4-oxadiazol-2-yl)phenyl]pyrazolo[3,4-d]pyrimidin-6-yl]amino]-N-methyl-cyclopentanecarboxamide]
25 to 200 | O=C(NCCn1ccnc1)[C@@H]1CC[C@@H](Nc2ncc3c(Br)nn(-c4ccc5ncccc5c4)c3n2)C1 [(1R,3R)-N-(2-(1H-imidazol-1-yl)ethyl)-3-((3-bromo-1-(quinolin-6-yl)-1H-pyrazolo[3,4-d]pyrimidin-6-yl)amino)cyclopentane-1-carboxamide]
25 to 200 | O=C(NCCc1cnc[nH]1)[C@@H]1CC[C@@H](Nc2ncc3c(Br)nn(-c4cc(F)c5ncccc5c4)c3n2)C1 [(1R,3R)-N-(2-(1H-imidazol-5-yl)ethyl)-3-((3-bromo-1-(8-fluoroquinolin-6-yl)-1H-pyrazolo [3,4-d]pyrimidin-6-yl)amino)cyclopentane-1-carboxamide]
